{"source": "patent US20100093767A1", "about": "“Mitotic Kinase Inhibitors” (TAKEDA SAN DIEGO, INC., priority 2004, published 2010)", "target": "T1, KSP (HuEg5) (Homo sapiens, UniProt P52732)", "T1 construct": "I.D. No. 1 corresponds to residues 1-359 with the C-terminal 6-histidine tag; 6-histidine tag (C); made in house; host or cells: E. coli Tuner (DE3)", "T1 sequence (P52732 with tags, fused parts or gaps)": "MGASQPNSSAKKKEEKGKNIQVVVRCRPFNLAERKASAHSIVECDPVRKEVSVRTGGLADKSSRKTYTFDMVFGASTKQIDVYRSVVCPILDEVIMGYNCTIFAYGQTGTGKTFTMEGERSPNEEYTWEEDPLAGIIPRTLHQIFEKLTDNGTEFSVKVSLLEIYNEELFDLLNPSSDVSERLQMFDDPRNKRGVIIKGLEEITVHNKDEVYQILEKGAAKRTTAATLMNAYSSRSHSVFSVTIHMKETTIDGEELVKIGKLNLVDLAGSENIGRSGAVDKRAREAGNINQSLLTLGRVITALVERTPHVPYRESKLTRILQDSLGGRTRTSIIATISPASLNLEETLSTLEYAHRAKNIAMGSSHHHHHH", "experiment": "in vitro enzymatic KSP (HuEg5) ATPase activity assay", "type": "biochemical", "settings": "reference compounds; coupled PK/LDH ATPase assay, 25 μM ATP, 12 nM enzyme, 60 minutes at room temperature", "source_text": "The activity of compounds as KSP (HuEg5) inhibitors may be assayed in vitro, in vivo, or in a cell line. Further, compounds according to the present invention may be screened for activity against one or more kinesins. Provided below is the in vitro enzymatic KSP (HuEg5) ATPase activity assay for activity against KSP (HuEg5).\nKSP (Eg5) DNA encoding residues 1-359 of the Kinesin motor domain sequence of the human enzyme may be amplified by PCR and cloned into the NcoI site of pET15b (Novagen), which incorporates a 6-histidine tag at the C-terminus. SEQ. I.D. No. 1 corresponds to residues 1-359 with the C-terminal 6-histidine tag and SEQ. I.D. No. 2 is the DNA sequence that was used to encode SEQ. […]\nRecombinant protein may be isolated from cellular extracts by passage over ProBond resin (Invitrogen), and dialysis against buffer containing 25 mM Tris pH 7.6, 50 mM NaCl, 0.25 mM TCEP. The purity of KSP (Eg5) proteins may be determined on denaturing SDS-PAGE gel. […]\nThe inhibitory properties of compounds relative to KSP may be determined using a clear 384-well plate format under the following reaction conditions: 20 mM K-PIPES pH 6.8, 2 mM MgCl2, 1 mM EGTA, 1.5 mM KCl, 1 mM DTT, 0.01% Brij35, 25 μM ATP, 1 mM phosphoenolpyruvate (PEP), 0.4 mM NADH, 25 nM microtubules (MT), 1 μM Taxol, 30 units/ml rabbit muscle pyruvate kinase (PK), 30 units/ml rabbit muscle lactic dehydrogenase (LDH), and 2% DMSO. […]", "data": [{"compound": "CCCCN1C(=O)C2Cc3c([nH]c4ccccc34)C(c3cccc(O)c3)N2C1=O", "note": "(centres unmarked) [HR22C16]", "values": [{"measurement": "IC50", "value": 1.5, "unit": "µM"}]}, {"compound": "CCOC(=O)C1=C(C)NC(=S)NC1c1cccc(O)c1", "note": "(centres unmarked) [Monastrol]", "values": [{"measurement": "IC50", "value": 45, "unit": "µM"}]}]}
